This note sets out measurements from PubChem BioAssay (NCI).

Assay in all cases: NCI-60 cell line screen, 48 h
The subject of assay [1] is A549 NSCLC.
Assay [2] deals with ACHN renal.
Assay [3] has as its system CCRF-CEM leukemia.
In assay [4] the test system is HOP-92 NSCLC.
Assay [5] concerns IGROV1 ovarian.
Assay [6] deals with OVCAR-4 ovarian.
Assay [7] deals with SK-OV-3 ovarian.
Assay [8] relates to MCF7 breast.
Assay [9] relates to NCI/ADR-RES ovarian.

Several values for one entry are separate records, joined by “and”; a condition that tells them apart may be missing. Identical values can stand only once.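 Cells were grown in 96-well plates and exposed to each compound for 48 hours at five concentrations; endpoints were interpolated linearly between bracketing concentrations, or set to the highest concentration if not reached. Here, GI50 denotes the concentration required for 50% inhibition of growth. TGI: total growth inhibition.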 Where only a bound is given, the exact number is not on record here.

Turning to `CCOC(=O)/C(=C/c1cccc(C#N)c1)N(CC)CC`, the TGI in assay [1], in [2], in assay [3], in [4], in assay [5] and in assay [6] was over 100 µM throughout. Also, in assay [7], the TGI is over 100 µM.

`O=c1nc(-c2ccccc2)cc(-c2ccccc2O)[nH]1`: the TGI in assay [1], in assay [2], in assay [3], in assay [4], in assay [5] and in [6] was over 100 µM throughout. This molecule came in with a TGI in [7] of over 100 µM.

Regarding `O=c1c2ccccc2nc(-c2ccccc2)n1NC(=S)Nc1ccccc1`, the TGI in assay [1], in [2], in [3], in assay [4], in assay [5] and in assay [6] was over 100 µM in each case. Further, in [7], the TGI is over 100 µM.

In the case of `CC(C)(C)OC(=O)N1N=NC2C1C1CC(OCc3ccccc3)(OCc3ccccc3)C2O1` (stereo not drawn), the TGI in [1] was over 100 µM; in assay [2], over 100 µM; in [3], 63.5 µM; in assay [4], over 100 µM; in [5], over 100 µM; in assay [6] it was over 100 µM. In assay [7], this molecule registered a TGI of over 100 µM.

On to `Oc1ccc(Br)cc1C=Nc1ccc(N=Cc2cc(Br)ccc2O)cc1`, for which the TGI in assay [1], in [2], in assay [3], in assay [4], in assay [5] and in [6] was over 100 µM throughout. Also, the TGI in assay [7] was over 100 µM.

In the case of `CC1=C(C(=O)NNS(=O)(=O)c2ccc(C)cc2)CC(C(=O)NNS(=O)(=O)c2ccc(C)cc2)=C(C)N1`, the TGI in [1], in assay [2], in assay [5], in [6] and in assay [7] was over 100 µM each time.

On to `C=CCn1c2c(sc1=S)C(S)N=CN2` (stereo not drawn), for which the TGI in assay [1] is over 100 µM; in assay [2] it was over 100 µM; in assay [3] it was over 100 µM; in assay [4] it was 55 µM; in assay [5], over 100 µM; in [6], over 100 µM. Moreover, in assay [7], the TGI was over 100 µM.

For the molecule `O=C1C(=O)N(c2cc(Cl)ccc2Cl)C(=O)C(=O)C1c1nc2ccccc2o1`, the TGI in assay [1], in assay [2], in [3], in assay [4], in assay [5] and in assay [6] was over 100 µM each time. This molecule also showed a TGI in [7] of over 100 µM.

For the molecule `COCOc1ccc(C2(O)Oc3cc(OCOC)ccc3C2C)c(O)c1` (stereo not drawn), the TGI in assay [1] is 31.9 µM; in assay [2], 26.7 µM; in [3], 53.7 µM; in assay [4], 30.5 µM; in assay [5], 31.6 µM; in [8], 27.9 µM. Moreover, the figures for the TGI in [9], in [6] and in assay [7] were 30.9 µM, 32.1 µM and 31.8 µM, respectively.

On to `Cc1cccc(C)c1NC(=O)C(=O)CC(=O)c1cccc([N+](=O)[O-])c1`, for which the TGI in assay [1], in assay [2], in [3], in [4], in [5] and in [6] was over 100 µM each time.

With `COc1cc(C(=O)N2CCc3c([nH]c4c([N+](=O)[O-])c(OC)ccc34)C2C)cc(OC)c1OC` (stereo not drawn), the TGI in [1] was over 100 µM; in assay [2], over 100 µM; in assay [3], over 100 µM; in [5], 22.3 µM; in assay [6], over 100 µM.

Consider `COC1=C(Br)C(=O)c2nc(C)ccc2C1=O`, for which the TGI came to 38.5 µM in assay [1]; 24 µM in assay [2]; 15.5 µM in [4]; 33.9 µM in [5]; 26.3 µM in assay [6]; 33.6 µM in [7].

Consider `O=S1(=O)OCCOS(=O)(=O)C1Cl`, for which the TGI in assay [1], in assay [3], in [4], in assay [5], in assay [6] and in [7] was over 100 µM each time.

With `OCCNCCOc1ccc(/C(=C(/Cl)c2ccccc2)c2ccccc2)cc1`, the TGI was determined as 12.8 µM in assay [1]; 9.87 µM in assay [3]; 25.4 µM in [5]; 31.5 µM in [6]; 10.4 µM in assay [7].

Consider `O=C(O)CSc1n[nH]c(Cc2ccccc2)n1`, for which the TGI in assay [1], in [2], in [3], in assay [4], in [5] and in assay [6] was over 100 µM each time. The TGI in assay [7] is over 100 µM.

Regarding `COc1cc(C(=O)C/C(CCC(=O)Nc2ccc(Cl)cc2Cl)=N/NC(=O)C(=O)NN)ccc1O`, the TGI in [1], in assay [2], in assay [3], in assay [4], in assay [5] and in assay [6] was over 100 µM each time. The TGI in assay [7] is over 100 µM.

For `Nc1ccc2nc3n(c2c1)C(=O)c1ccccc1-3`, the TGI in assay [1], in assay [2], in assay [3], in assay [4], in assay [5] and in assay [8] was over 100 µM each time. The TGI in [9], in assay [6] and in assay [7] was over 100 µM in each case.

Take `CCOc1ccccc1NC(=O)C(C#N)C1=C(Cl)C(=O)c2ccccc2C1=O` (stereo not drawn): the TGI in assay [1] is 3.74 µM; in assay [2], 3.26 µM and 3.52 µM; in assay [4], 3.65 µM and 3.19 µM; in assay [5], 5.31 µM; in assay [6] it was 3.42 µM and 3.04 µM; in assay [7], 41.5 µM. Moreover, the figures for the GI50 in assay [3], in assay [4] and in assay [6] were 3.15 µM, 1.4 µM and 1.67 µM, respectively.
